Source: patent publication US20160017326A1, “MICRORNAS AS FUNCTIONAL MEDIATORS AND BIOMARKERS OF BONE METASTASIS” (THE TRUSTEES OF PRINCETON UNIVERSITY, priority 2013, published 2016)

What was measured:
Calcr 3'UTR = test: 3'UTR luciferase reporter assay, Calcr; assay type: cell-based, mouse; settings: co-transfection in HeLa
Procedure: (§1) For NFκB reporter assays the pGL4.32 [luc2P/NF-κB-RE/Hygro] vector (Promega) was co-transfected with a Renilla-luciferase plasmid into cells. After 24 hours, cells were treated with 50 ng/ml RANKL, 50 ng/ml sICAM1, or 10 ng/ml TNFα for analysis at indicated timepoints. Wildtype and mutant 3′UTRs were PCR amplified from mouse genomic DNA. The 3′UTRs were cloned into the pMIR-REPORT vector (AMBION®) downstream of firefly luciferase. Mutations in miRNA target sites were generated using the QuikChange Multi site-directed mutagenesis kit (Stratagene). 5×10^4 HeLa cells were plated in 24-well plates 24 hours prior to transfection. 200 ng of reporter plasmid was co-transfected with the renilla-luciferase control plasmid and 10 pM pre-miRNA precursor or precursor control (AMBION®) using Lipofectamine 2000 (Invitrogen). Cells were lysed 24 hours after transfection and assayed for luciferase activity using the Glomax 96 Luminometer (Promega). Primer sequences for cloning or mutagenesis are listed below:
(§2) Reporter constructs were co-transfected with pre-miRs, as well as a Renilla luciferase plasmid for normalization.

Balb/c mice = test: Systemic pre-miRNA treatment of healthy mice: X-ray, microCT, histology; assay type: in vivo, mouse; settings: for osteoclast activity in vivo: intravenous injection; for number of osteoclasts relative to bone surface area (TRAP): 10 μg pre-miRNA i.v. weekly for four weeks
From the text: (§3) Hindlimb bones were excised from mice at the end point of each experiment, immediately following X-ray and BLI. Hind limb bones were fixed in 10% neutral-buffered formalin, washed and decalcified in a solution of 10% EDTA for 2 weeks. One limb from each mouse was stored in 70% ethanol for μCT analysis and Von Kossa staining, while the other limb was embedded in paraffin for hematoxylin and eosin (H&E), tartrate-resistant acid phosphatase (TRAP), or immunohistochemical staining. Non-decalcified sections were embedded in resin using the Osteo-bed Bone Embedding Kit (Sigma Aldrich, EM0200) before sectioning, followed by Von Kossa staining. Briefly, sections were rehydrated to H2O, followed by submersion in 1% silver nitrate and exposure to UV light for 5 minutes. Sections were then incubated in 2.5% Sodium Thiosulphate, followed by counterstaining with Nuclear Fast Red and dehydration through Xylene. Histomorphometric analysis was performed on H&E stained bone metastasis sections using the Zeiss Axiovert 200 microscope and the AxioVision software version 4.6.3 SP1. For quantitative analysis of lesion area, a 5× objective was used to focus on the tumor region of interest and images were acquired using an AxioCamICc3 camera set to an exposure of 50 ms. Lesions that were larger than the field of view were quantified by acquiring multiple images to encompass the entire lesion and combined in Adobe Photoshop CS5. Lesion area was quantified by outlining the region(s) of interest and quantifying lesion area. Osteoclast number was assessed as multinucleated TRAP^+ cells along the tumor-bone interface and reported as number/mm of interface as previously reported (Sethi et al., 2011). Immunohistochemical analysis was performed with heat-induced antigen retrieval and an osteocalcin antibody (ABcam, AB93876). A biotinylated secondary antibody was used with Vectastain ABC Kit (Vector Laboratories) and DAB detection kit (Zymed) to reveal the positively stained cells; nuclei were counterstained with hematoxylin
(§4) Anesthetized mice were placed on singlewrapped films (X-OMAT AR, Eastman Kodak) and exposed to X-ray radiography at 35 kV for 15 s using a MX-20 Faxitron instrument. Films were developed using a Konica SRX-101A processor. Changes in bone remodeling and osteolytic lesions (radiolucent lesions) in the hindlimbs of mice were identified and quantified using the ImageJ software (National Institutes of Health)
Femurs and tibias were scanned using the INVEON PET/CT (Siemens Healthcare) at the Preclinical Imaging Shared Resource of Cancer Institute of New Jersey. The X-Ray tube settings were 80 kV and 500 μA and images were acquired at the highest resolution without CCD binning, resulting in a voxel size of 9.44 μm. A 0.66° rotation step through a 195° angular range with 6500 msec exposure was used. The images were reconstructed with Beam Hardening Correction and Hounsfield calibration before being analyzed using the INVEON Research Workplace software (Siemens Healthcare). After processing with a 3D Gaussian filter to reduce noise ROI's were manually segmented that corresponded to the cortical and trabecular bone regions. Cortical regions of interest comprised of 470 μm thick regions (50 slices, 9.4 μm thickness for each slice) located 3 mm distal to the growth plate, while 300 μm thick trabecular sections began 0.27 mm distal to the growth plate.
To evaluate the capacity for these miRNAs to inhibit mouse osteoclast function in vivo, 10 μg of pre-miRNA were injected into the lateral tail-vein of Balb/c mice weekly for four weeks. […] FIG. 6A illustrates representative X-ray, μCT and histological images for TRAP, H&E, Von Kossa, or osteocalcin staining of bones from mice treated with miR-33a, miR-133a, miR-141, miR-190 and miR-219 compared to non-treated control. Regions of interest for trabecular and cortical bone scan and analysis are marked by dashed lines. Scale bar indicates 200 μm, n=6. […]

[1] = test system: SCP28 breast cancer cells; test: Experimental bone metastasis: intracardiac SCP28 cells in nude mice, BLI, X-ray, histology; assay type: in vivo, mouse; settings: for osteolytic bone lesions (X-ray): hindlimbs, pre-miRNA treated; for TRAP+ osteoclast number: histology, tumor-bone interface; for hind-limb tumor burden / metastatic progression by BLI: pre-miRNA 10 μg/mouse i.v. before and once per week after SCP28 inoculation; for osteolytic bone metastasis: summary statement
From the text: as §3, §4
All procedures involving mice and experimental protocols were approved by Institutional Animal Care and Use Committee (IACUC) of Princeton University. For bone metastasis studies, 1×10^5 tumor cells were injected into the left cardiac ventricle of anesthetized female athymic Ncr-nu/nu. MiRNA precursors (10 μg/mouse in 100 μl PBS, Applied Biosystems) and Zometa (100 μg/kg) were injected intravenously. Development of metastases was monitored by measuring photon flux of BLI signals in the hindlimbs of mice after retro-orbital injection of 75 mg/kg D-Luciferin and image acquisition using the Xenogen IVIS 200 Imaging System. Data were normalized to the signal on day 0. X-ray examination was performed as previously described (Kang et al., 2003).
After further validating the ability of highly metastatic SCP28 to induce osteoclastogenesis in MOCP5 cells, SCP28 were used for analyzing the effect of miRNAs on bone metastasis development in mice. FIG. 7E illustrates representative images of MOCP-5 cells treated with MDA-MB-231 and SCP28 CMs. Scale bar represents 200 μm. FIGS. 7F and 7G illustrate quantification of osteoclast number and nuclei per osteoclast after MOCP-5 cells were treated with indicated CM as in FIG. 7C. Results were statistically significant with p<0.001 (***) as assessed by Student's t test. Nude mice were systemically treated with control or experimental pre-miRNAs immediately before, and once per week subsequently, after inoculation with SCP28 cells via intracardiac injection. […]

Mitf 3'UTR = test: 3'UTR luciferase reporter assay, Mitf; assay type: cell-based, mouse; settings: co-transfection in HeLa, relative to negative control miRNA
Procedure: as §1, §2

Traf6 3'UTR = test: 3'UTR luciferase reporter assay, Traf6; assay type: cell-based, mouse; settings: co-transfection in HeLa
Procedure: as §1, §2

Mmp14 3'UTR = test: 3'UTR luciferase reporter assay, Mmp14; assay type: cell-based, mouse; settings: co-transfection in HeLa
Procedure: as §1, §2

miR-190: miRNA, SEQ ID NO: 64; delivered as pre-miRNA precursor; targets Calcr (UGAUAUGUUUGAUAUAUUAGGU; delivered as pre-miRNA precursor, chemistry not given here; listed as Homo sapiens)
luciferase reporter activity, Calcr 3'UTR (Calcr 3'UTR): able to repress | osteoclast activity in vivo (Balb/c mice): significantly reduced | osteolytic bone lesions (X-ray) [1]: significant bone degradation | TRAP+ osteoclast number [1]: significant decrease | hind-limb tumor burden / metastatic progression by BLI [1]: no effect | osteolytic bone metastasis [1]: no measurable effect

miR-141: miRNA, SEQ ID NO: 69; delivered as pre-miRNA precursor; targets Mitf and Calcr (UAACACUGUCUGGUAACGAUGU; delivered as pre-miRNA precursor, chemistry not given here; listed as Homo sapiens)
luciferase reporter activity, Mitf 3'UTR (Mitf 3'UTR): repress expression of Mitf | reduction of Mitf expression (3'UTR reporter) (Mitf 3'UTR): ~50% | luciferase reporter activity, Calcr 3'UTR (Calcr 3'UTR): repressed | number of osteoclasts relative to bone surface area (TRAP) (Balb/c mice): significant decrease | osteoclast activity in vivo (Balb/c mice): significantly reduced | osteolytic bone lesions (X-ray) [1]: decreased bone lesions | TRAP+ osteoclast number [1]: significant decrease | hind-limb tumor burden / metastatic progression by BLI [1]: significant decrease in metastatic burden | osteolytic bone metastasis [1]: capable of inhibiting

miR-219: miRNA, SEQ ID NO: 66; delivered as pre-miRNA precursor; targets Mitf and Traf6 (UGAUUGUCCAAACGCAAUUCU; delivered as pre-miRNA precursor, chemistry not given here; listed as Homo sapiens)
luciferase reporter activity, Mitf 3'UTR (Mitf 3'UTR): repress expression of Mitf | reduction of Mitf expression (3'UTR reporter) (Mitf 3'UTR): ~20% | luciferase reporter activity, Traf6 3'UTR (Traf6 3'UTR): repressed | number of osteoclasts relative to bone surface area (TRAP) (Balb/c mice): significant decrease | osteoclast activity in vivo (Balb/c mice): significantly reduced | osteolytic bone lesions (X-ray) [1]: decreased bone lesions | TRAP+ osteoclast number [1]: significant decrease | hind-limb tumor burden / metastatic progression by BLI [1]: significant decrease in metastatic burden | osteolytic bone metastasis [1]: capable of inhibiting

miR-133a: miRNA, SEQ ID NO: 61; delivered as pre-miRNA precursor; targets Mitf and Mmp14 (UUUGGUCCCCUUCAACCAGCUA; delivered as pre-miRNA precursor, chemistry not given here; listed as Homo sapiens)
luciferase reporter activity, Mitf 3'UTR (Mitf 3'UTR): repress expression of Mitf | luciferase reporter activity, Mmp14 3'UTR (Mmp14 3'UTR): repressed | osteoclast activity in vivo (Balb/c mice): significantly reduced | osteolytic bone lesions (X-ray) [1]: significant bone degradation | hind-limb tumor burden / metastatic progression by BLI [1]: no effect | osteolytic bone metastasis [1]: no measurable effect
